Laboratory results from patent publication US20110250454A1, “PREPARATION OF NEBIVOLOL” (priority 2010, published 2011).
Where a name gives a salt, the structure may show the parent alone.

Experiments:
[1] = Particle size distribution (laser diffraction, Malvern instrument); format: physicochemical; settings: Hydrochloride; for particle size distribution D10: 10 volume percent of particles smaller than value; for particle size distribution D50: 50 volume percent of particles smaller than value; for particle size distribution D90: 90 volume percent of particles smaller than value
Source text: The D10, D50, and D90 values are useful ways for indicating particle size distributions. D90 refers to at least 90 volume percent of the particles having a size smaller than the given value. Likewise, D10 refers to 10 volume percent of the particles having a size smaller than the given value. D50 refers to 50 volume percent of the particles having a size smaller than the given value. Methods for determining D10, D50, and D90 include laser diffraction, such as using equipment from Malvern Instruments Ltd. of Malvern, Worcestershire, United Kingdom.

[2] = Specific surface area (BET); format: physicochemical; settings: BET stated for Example 8; Hydrochloride
[3] = natural crystalline form, not micronized; cited from earlier work
[4] = natural crystalline form, not micronized; cited from earlier work; remark: listed apart in the source

Row | particle size distribution D10 [1] [μm] | particle size distribution D50 [1] [μm] | particle size distribution D90 [1] [μm] | Specific surface area [2] [m^2/g] | Structure (SMILES) | dissolution rate [3] | bioavailability [4]
1 | 1.314 | 3.363 | 7.80 |  | OC(CNCC(O)C1CCc2cc(F)ccc2O1)C1CCc2cc(F)ccc2O1 (stereo not shown) [Example 54, Nebivolol Hydrochloride] |  | 
2 | 3.94 | 19.1 | 48.4 | 1.2580 | OC(CNCC(O)C1CCc2cc(F)ccc2O1)C1CCc2cc(F)ccc2O1 (stereo not shown) [Example 8, Nebivolol Hydrochloride] |  | 
3 | 1.753 | 4.571 | 15.180 |  | OC(CNCC(O)C1CCc2cc(F)ccc2O1)C1CCc2cc(F)ccc2O1 (stereo not shown) [Example 52, Nebivolol Hydrochloride] |  | 
4 | 1.23 | 3.17 | 10.75 | 3.68 | OC(CNCC(O)C1CCc2cc(F)ccc2O1)C1CCc2cc(F)ccc2O1 (stereo not shown) [Example 56, Nebivolol Hydrochloride] |  | 
5 | 2.37 | 6.29 | 25.76 |  | OC(CNCC(O)C1CCc2cc(F)ccc2O1)C1CCc2cc(F)ccc2O1 (stereo not shown) [Example 55, Nebivolol Hydrochloride] |  | 
6 | 1.87 | 4.46 | 11.72 |  | OC(CNCC(O)C1CCc2cc(F)ccc2O1)C1CCc2cc(F)ccc2O1 (stereo not shown) [Example 53, Nebivolol Hydrochloride] |  | 
7 | 1.43 | 3.52 | 9.35 |  | OC(CNCC(O)C1CCc2cc(F)ccc2O1)C1CCc2cc(F)ccc2O1 (stereo not shown) [Example 60, Nebivolol Hydrochloride] |  | 
8 |  |  |  |  | OC(CNCC(O)C1CCc2cc(F)ccc2O1)C1CCc2cc(F)ccc2O1 (stereo not drawn) [nebivolol hydrochloride, (1RS,1′RS)-1,1′-[(2RS,2′SR)-bis(6-fluoro-3,4-dihydro-2H-1-benzopyran-2-yl)]-2,2′-iminodiethanol] | poor | poor
